These results are taken from patent US8389481B2, “Glutamate-enhanced cell-penetrating peptides and methods of using same” (University of Medicine and Dentistry of New Jersey, priority 2008, dated 2013).

Holding throughout (type): cell-based
The subject of data set [1] is DU-145 cells. Nature of the data set: Peptide uptake by live cells, flow cytometry (geometric MFI). The settings on record: for uptake of carboxydansyl peptide on coincubation with peptide 353: 300 nM each, 1 hr (FIG. 1D); for average geometric MFI: 300 nM peptides, 4° C., 4 hours (FIG. 2); for geometric MFI compared among the peptides (FIG. 1A): 500 nM peptides, 4 hrs incubation; for effect of NaN3 on uptake: 0.1 or 1% NaN3, 300 nM peptide. The protocol: (§1) Uptake of peptides by live cells was compared by flow cytometry, using the exclusion dye 7-amino actinomycin D (7-AAD) to exclude dead cells from analyses.
(§2) Cells: DU-145 and LNCaP cells were the gift of Dr. James Turkson (University of South Florida, Tampa, Fla.). DU-145 cells were grown in DMEM/Ham's F12 (Invitrogen, Carlsbad, Calif.) plus 10% newborn bovine serum (Hyclone, Logan, Utah). LNCaP cells were maintained in RPMI-1640 (Invitrogen) plus fetal bovine serum (Hyclone). Cell viabilities were determined using fluorescein diacetate (Sigma Chemical Co., St. Louis, Mo.) and a Universal RIII fluorescence microscope (Zeiss, Jena, Germany).
(§3) Uptake and Fluorescence Quantification Studies: Peptides were added to subconfluent cultures of cells at times, temperatures, and concentrations indicated in experiments. Concentrations ranging from 0 to 3000 nM were assayed. Cells were analyzed in the presence of […] 7-AAD (eBioscience, San Digeo Calif.) to gate on live events. Fluorescence was quantified, after cells were harvested, using a FACScan flow cytometer. At least 10,000 events were acquired using CellQuest Pro software and an Apple Macintosh G4 dual coprocessor computer running OS X 10.3.9. Fluorescence detectors on the instrument were standardized prior to each acquisition run, so that fluorescence intensities from different days could be compared. Because the FACScan employs logarithmic amplifiers on the fluorescence detectors, the more accurate parameter with which to compare fluorescence intensities for different samples is the geometric mean fluorescence intensity (geometric MFI). In some studies, fixed cells (4% paraformaldehyde/DPBS) were analyzed on an Amnis ImageStream 200 imaging cytometer using IDEAS 3.0 software.
On the technique in general: Flow cytometry measures light scatter and fluorescence of single cells or particles in a stream.

Data set [2] has as its system DU-145 cells. Nature of the data set: Imaging flow cytometry, intracellular distribution of FITC-labeled peptides. The settings on record: 250 nM, 4 hours. Here is the method:
(§4) FIG. 3A: DU-145 and LN-CaP cells were incubated with 250 nM peptides 351 or 353 for 4 hours, counterstained with 5 μM DRAQ 5, then fixed in paraformaldehyde and analyzed by imaging flow cytometry on an Amnis Imaging Cytometer. IDEAS software (Amnis) was used to generate and colorize the images. […] FIG. 3B: Live cell imaging of peptide 353 by DU-145 cells. 500 nM peptide 353 was incubated with DU-145 cells overnight (necessary for imaging purposes). Cells were washed with phenol red-free buffer, counter-stained with DRAQ5 at 10 μM, then examined under a Zeiss Axiovert 200 inverted phase contrast microscope with epifluorescence. The merged image confirms the presence of peptide 353 in nuclei. FIGS. 3C and D: DU-145 cells incubated with peptides 350 and 356, as described for FIG. 3B. Note the absence of FITC fluorescence in nuclei.
(§5) Since flow cytometry only gives data regarding total shifts in fluorescence of a population, imaging flow cytometry and live imaging microscopy studies were performed to determine if the NLS augmented nuclear accumulation of the peptides. Imaging flow cytometry was chosen to provide data on intracellular distribution of FITC-labeled peptides. Inverted epifluorescence microscopy was chosen to eliminate inadvertant artifacts that may arise from fixation, such as nuclear translocation. For these studies, the cell-permeable fluorochrome DRAQ5 was used because it readily enters and stains nuclei of viable cells. […] It was not retained in the plasma membrane (FIG. 3A). […] The translocation of peptides to nuclei was complete in the sense that FITC and DRAQ5 fluorescence colocalized in all viable cells, although cytoplasmic fluorescence was visible as well. The FITC distribution was somewhat punctuate in the cytoplasmic portion of cells, leading us to conclude that the peptide may be accumulating within endosomes. […]
as §3, with “Concentrations ranging from 0 to 3000 nM were assayed.” left out, “At least 10,000 events were acquired using CellQuest Pro software and an Apple Macintosh G4 dual coprocessor computer running OS X 10.3.9.” left out

Data set [3] concerns LNCaP cells. Described as above. Conditions: 250 nM, 4 hours. Here is the method:
as §4, §5
as §3, with “Concentrations ranging from 0 to 3000 nM were assayed.” left out, “At least 10,000 events were acquired using CellQuest Pro software and an Apple Macintosh G4 dual coprocessor computer running OS X 10.3.9.” left out

The nature of data set [4]: Cell death determined by staining with 7-AAD. The settings on record: human, DU-145 cells; 3000 nM, 1 hr (FIG. 1C). Here is the method: (§6) In order to determine if uptake of peptide 353 was receptor-mediated or receptor-specific in any way, Glu residues were substituted by Phe residues (peptide 361) or Asn residues (peptide 362). The resulting peptides were incubated at 0 to 3000 nM with DU-145 cells for 1 hr. Cells were then harvested and processed for analysis by flow cytometry. […] At 3000 nM, peptides 361 and 362 induced cell death in more than 70% of the cells (determined by staining with 7-AAD); in the case of peptide 361, over 95% of DU-145 cells were positive for 7-AAD; therefore only geometric MFI for concentrations up to 1000 nM are shown in the figure. […] The higher MFI observed for peptide 365 is likely due to the hydrophobicity of both the Phe residues and the dansyl fluorochrome. It was concluded from these experiments that peptide 353 bound to a cell-surface receptor through the glutamate residues.
as §3

Data set [5] deals with DU-145 cells. Nature of the data set: Cell death determined by staining with 7-AAD. Conditions: concentrations higher than 300 nM. The protocol: as §6, §3
Data set [6] has as its system LNCaP cells. Nature of the data set: Peptide uptake by live cells, flow cytometry (geometric MFI). The settings on record: 3 μM peptide, 1 hr (FIG. 1B). The protocol:
as §1, §2, §3

Data set [7] deals with DU-145 cells. Nature of the data set: Live cell imaging of nuclear localization (epifluorescence microscopy). The settings on record: 500 nM, 24 hrs incubation. The protocol:
as §5
(§7) Live Cell Imaging Studies: A Zeiss Axiovert 200 inverted phase-contrast microscope outfitted with epifluorescence was used for live imaging studies. […] Images were acquired and analyzed using Zeiss Axiovision software.

In data set [8] the test system is LNCaP cells. Described as above. Conditions: 500 nM, 24 hrs incubation. Here is the method: as §5, §7
Setting [9] is: 300 nM peptide, 4 hr, 37° C., NaN3 0%.
Setting [10] is: 300 nM peptide, 4 hr, 37° C., NaN3 0.1%.
Setting [11] is: 300 nM peptide, 4 hr, 37° C., NaN3 1.0%.
The mark [12] stands for this setting: 300 nM peptide, 4 hr, NaN3 0.1%.
The mark [13] stands for this setting: 300 nM peptide, 4 hr, NaN3 1.0%.
[14] abbreviates: up to 300 nM, 1 hr, 37 ° C. (FIG. 1C), from approximately 40 without peptide.

“And” between values parts separate entries of the source, which are not always exact repeats. Identical values can stand only once. Primed or numbered codes have the meaning given here. Ends that are not written are not given here. Peptide text beside a SMILES is read from it. * marks the point of attachment. {P353} = cell-penetrating peptide 353 (Glu-Oct6) attached at PNA N-terminus; {Lys-FITC} = C-terminal lysine carrying fluorescein (FITC); 5FAM = O=C1OC2(c3ccc(O)cc3Oc3cc(O)ccc32)c2ccc(C(=O)*)cc21; FITC′ = not defined here

Turning to “FFFAAGRKRKKRT-K-dansyl (FFFAAGRKRKKRTK-dansyl) [Peptide 365]”, the “uptake of carboxydansyl peptide on coincubation with peptide 353” value in data set [1] is “without concomitant uptake”.
What is called % Inhibition is the relative decrease from the control value, in per cent. As to “EEEAAKKK-FITC (EEEAAKKK-{FITC′}) [Peptide 352]”, the “Geometric MFI” value in data set [1] (setting [9]) is 58.6; in data set [1] (setting [10]), 61.8; in data set [1] (setting [11]), 47.4. Also, the “% Inhibition” value came to 0% in data set [1] (300 nM peptide, 4 hr, NaN3 0%); 0% in data set [1] (setting [12]); 19.1% in data set [1] (setting [13]). The “average geometric MFI” value in data set [1] worked out at 186. In addition, in data set [1], the “geometric MFI compared among the peptides (FIG. 1A)” value is recorded as “significantly increased”. Moreover, in data set [1] (4 hr, 37° C.), the “effect of NaN3 on uptake” value was “no effect”.
Take “EEEAA-FITC (not fully specified; carboxyfluorescein label; Synthetically produced Glu peptide (Peptide 351))”: the “Geometric MFI” value in data set [1] (setting [9]) turned out to be 43.8; in data set [1] (setting [10]) it was 56.9; in data set [1] (setting [11]), 48.4. Further, the “% Inhibition” value is reported as 0% in data set [1] (300 nM peptide, 4 hr, NaN3 0%); 0% in data set [1] (setting [12]); 0% in data set [1] (setting [13]). Besides, in data set [1], the “geometric MFI compared among the peptides (FIG. 1A)” value is “lowest values”. The “effect of NaN3 on uptake” value in data set [1] (4 hr, 37° C.) is “no effect”. For the same compound, the “accumulation in the cells when the plasma membrane was excluded” value in data set [2] and in data set [3] was “much less accumulation” in each case. Also, the “nuclei positive for DRAQ5 and FITC colocalization” value in data set [2] and in data set [3] was ~10% in each case.
The term viability denotes a per cent measure of how many cells are alive, often set against a control. Low values mean a greater loss of cells, high ones better survival. For `C[C@H](NC(=O)[C@H](C)NC(=O)[C@H](Cc1ccccc1)NC(=O)[C@H](Cc1ccccc1)NC(=O)[C@@H](N)Cc1ccccc1)C(=O)NCC(=O)N[C@@H](CCCNC(=N)N)C(=O)N[C@@H](CCCCN)C(=O)N[C@@H](CCCNC(=N)N)C(=O)N[C@@H](CCCCN)C(=O)N[C@@H](CCCCN)C(=O)N[C@@H](CCCNC(=N)N)C(=O)N[C@H](C(=O)N[C@@H](CCCCNC(=O)c1ccc2c(c1)C(=O)OC21c2ccc(O)cc2Oc2cc(O)ccc21)C(=O)O)[C@@H](C)O` [Peptide 361, FFFAAGRKRKKRT-FITC] (H-FFFAAGRKRKKRTK(5FAM)-OH), the “Geometric MFI” value in data set [1] (setting [14]) is ~100. Further, the viability at 1 h, 3 µM in data set [4] was < 50%. The cell death entry in data set [5] is recorded as “significant cell death”.
As to EEE-FITC [Peptide 350], the “Geometric MFI” value amounted to 25.6 in data set [1] (setting [9]), 26.4 in data set [1] (setting [10]) and 29.7 in data set [1] (setting [11]). The “% Inhibition” value in data set [1] (300 nM peptide, 4 hr, NaN3 0%) was 0%; in data set [1] (setting [12]), 0%; in data set [1] (setting [13]) it was 0%. The “geometric MFI compared among the peptides (FIG. 1A)” value in data set [1] was “lowest values”. Besides, in data set [1] (4 hr, 37° C.), the “effect of NaN3 on uptake” value is given as “no effect”.
As for “EEEAAGRKRKKRT-FITC (EEEAAGRKRKKRT-{FITC′}) [Peptide 353, glutamate peptide linked by alanine linker to Oct6 NLS]”, in data set [1] (300 nM 353 with 300 nM carboxydansyl peptide 365 or 366, 1 hr (FIG. 1D)), the “uptake of carboxyfluorescein peptide 353 on coincubation” value is given as “nearly unaltered uptake”. Besides, the “Geometric MFI” value in data set [1] (setting [9]) was 151 and 151.4; in data set [1] (setting [10]), 155.7; in data set [1] (setting [11]) it was 114 and 114.4; in data set [1] (3 μM peptide, 1 hr (FIG. 1B)), 1500-2000; in data set [6] it was 1500-2000. The “% Inhibition” value in data set [1] (300 nM peptide, 4 hr, NaN3 0%) is 0%; in data set [1] (setting [12]) it was 0%. In addition, the “average geometric MFI” value in data set [1] is reported as 486. The “geometric MFI compared among the peptides (FIG. 1A)” value in data set [1] is on record as “significantly increased”. Moreover, the cell death result in data set [5] is recorded as “not seen”. For the same compound, the “accumulation in the nuclei” value in data set [7] and in data set [8] was “accumulated in the nuclei” each time.
As for `C[C@H](NC(=O)[C@H](C)NC(=O)[C@H](CC(N)=O)NC(=O)[C@H](CC(N)=O)NC(=O)[C@@H](N)CC(N)=O)C(=O)NCC(=O)N[C@@H](CCCNC(=N)N)C(=O)N[C@@H](CCCCN)C(=O)N[C@@H](CCCNC(=N)N)C(=O)N[C@@H](CCCCN)C(=O)N[C@@H](CCCCN)C(=O)N[C@@H](CCCNC(=N)N)C(=O)N[C@H](C(=O)N[C@@H](CCCCNC(=O)c1ccc2c(c1)C(=O)OC21c2ccc(O)cc2Oc2cc(O)ccc21)C(=O)O)[C@@H](C)O` [Peptide 362, NNNAAGRKRKKRT-FITC] (H-NNNAAGRKRKKRTK(5FAM)-OH), in data set [1] (setting [14]), the “Geometric MFI” value is ~100. Further, the viability at 1 h, 3 µM in data set [4] is < 50%. Moreover, the cell death result in data set [5] was “not seen”.
As to “NNNAAGRKRKKRT-K-dansyl (NNNAAGRKRKKRTK-dansyl) [Peptide 366]”, the “uptake of carboxydansyl peptide on coincubation with peptide 353” value in data set [1] is “without concomitant uptake”.
In the case of “GRKRKKRT-FITC (GRKRKKRT-{FITC′}) [Peptide 356]”, the “Geometric MFI” value in data set [1] (setting [9]) is listed as 417.6; in data set [1] (setting [10]), 293; in data set [1] (setting [11]), 181. The “% Inhibition” value in data set [1] (300 nM peptide, 4 hr, NaN3 0%) is given as 0%; in data set [1] (setting [12]), 29.8%. The “average geometric MFI” value in data set [1] is recorded as 325. The “geometric MFI compared among the peptides (FIG. 1A)” value in data set [1] is “not nearly as great as that of peptide 353”.
Regarding “EEEAAGRKRKKRT-TATGATCTCCTCCGT-K-FITC (all peptide nucleic acid (PNA), 5' {P353}, 3' {Lys-FITC}) [Peptide 353-PNA]”, in data set [1] (0, 300, and 1000 nM, 18 hr (FIG. 4)), the “MFI of the cells with increasing concentration” value is given as “increased the MFI”. Besides, the “MFI of small but highly fluorescent population of cells” value in data set [1] (300 nM, 18 hr (FIG. 4)) is “greater than 10^3”.
